Measured values taken from patent US7960130B2, “Method for activation of transient receptor potential cation channel, subfamily A, member 1 using acetaldehyde” (Korea University Industry and Academy Cooperation Foundation, priority 2008, dated 2011).
Entries after “also recorded” stand apart in the source; their conditions may differ.

What was measured:
hTRPA1 = biological target: T1, hTRPA1 (Homo sapiens, UniProt O75762); assay: Fluo-3 calcium imaging of hTRPA1-transfected HEK293T cells; format: cell-based
T1 construct: expressed in transfected cells; host or cells: HEK293T (ATCC CRL-11268), pcDNA3.1
T1 sequence (O75762 whole entry): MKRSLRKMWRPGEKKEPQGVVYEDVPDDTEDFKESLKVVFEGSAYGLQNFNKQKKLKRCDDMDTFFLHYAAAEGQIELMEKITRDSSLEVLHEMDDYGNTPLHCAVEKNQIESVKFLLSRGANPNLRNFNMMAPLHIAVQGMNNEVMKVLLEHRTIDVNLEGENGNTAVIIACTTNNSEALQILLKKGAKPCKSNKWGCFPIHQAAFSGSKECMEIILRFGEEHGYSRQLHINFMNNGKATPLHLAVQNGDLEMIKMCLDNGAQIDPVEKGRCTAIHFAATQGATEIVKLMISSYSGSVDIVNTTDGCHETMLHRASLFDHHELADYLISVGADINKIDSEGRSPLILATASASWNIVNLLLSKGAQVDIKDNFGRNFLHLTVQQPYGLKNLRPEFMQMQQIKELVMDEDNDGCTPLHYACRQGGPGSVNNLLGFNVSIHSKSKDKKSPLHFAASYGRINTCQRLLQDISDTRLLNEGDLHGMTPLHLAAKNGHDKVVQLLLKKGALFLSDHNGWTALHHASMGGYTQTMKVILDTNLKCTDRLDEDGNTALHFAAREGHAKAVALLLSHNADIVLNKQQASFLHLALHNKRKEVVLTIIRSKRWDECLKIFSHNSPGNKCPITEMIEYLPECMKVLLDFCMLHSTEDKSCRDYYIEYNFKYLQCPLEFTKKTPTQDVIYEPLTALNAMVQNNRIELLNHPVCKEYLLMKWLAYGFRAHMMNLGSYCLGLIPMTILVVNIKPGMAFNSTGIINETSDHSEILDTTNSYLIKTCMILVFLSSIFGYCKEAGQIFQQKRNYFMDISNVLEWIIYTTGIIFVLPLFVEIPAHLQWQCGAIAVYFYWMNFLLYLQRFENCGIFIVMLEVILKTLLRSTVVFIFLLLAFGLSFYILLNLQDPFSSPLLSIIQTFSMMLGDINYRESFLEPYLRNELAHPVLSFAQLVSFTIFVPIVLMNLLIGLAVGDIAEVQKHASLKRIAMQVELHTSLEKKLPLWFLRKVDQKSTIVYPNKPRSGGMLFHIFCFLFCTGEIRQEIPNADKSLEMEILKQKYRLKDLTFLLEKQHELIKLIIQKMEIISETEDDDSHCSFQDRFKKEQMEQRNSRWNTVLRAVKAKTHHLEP
Description: (§1) Particularly, the HEK293T cell line was transiently transfected with individual TRP channel plasmid (pcDNA3.1 containing polynucleotide encoding hTRPA1, rTRPV2, rTRPV1 or mTRPV4; pcDNA5/FRT containing polynucleotide encoding mTRPA1, hTRPV3 or mTRPM8) 3 μg per 35-mm dish and 600 ng/well of pcDNA3 (Invitrogen Corp., USA; containing green fluorescent protein (GFP) cDNA) using Fugene6 (Roche Diagnostics, USA) according to manufacturer's instruction. The transformed cells were cultured in DMEM/F12 containing 10% FBS and 1% penicillin/streptomycin in a CO2 incubator for 24 hours. The cells were replated onto poly-L-lysine-coated glass coverslips, followed by further culture for 10-24 hours.
(§2) Stock solutions were made using water or ethanol, and were diluted with test solutions before use.
Calcium imaging was performed with a confocal microscope (LSM5 Pascal, Carl Zeiss, Germany), and time-lapse images (488 nm excitation/514 nm emission) were collected every 3 seconds using Carl Zeiss ratio tool software (Carl Zeiss, Germany).
as §2

TRPV2 = biological target: T2, TRPV2 (Rattus norvegicus, UniProt Q9WUD2, A713V/L151P/T158I); assay: Calcium imaging of TRP transfected cell lines treated with acetaldehyde (TRPV2); format: cell-based; conditions: 1 mM acetaldehyde
T2 construct: expressed in transfected cells; host or cells: HEK293T (ATCC CRL-11268), pcDNA3.1
T2 sequence (Q9WUD2 1-761 L151P/T158I/A713V): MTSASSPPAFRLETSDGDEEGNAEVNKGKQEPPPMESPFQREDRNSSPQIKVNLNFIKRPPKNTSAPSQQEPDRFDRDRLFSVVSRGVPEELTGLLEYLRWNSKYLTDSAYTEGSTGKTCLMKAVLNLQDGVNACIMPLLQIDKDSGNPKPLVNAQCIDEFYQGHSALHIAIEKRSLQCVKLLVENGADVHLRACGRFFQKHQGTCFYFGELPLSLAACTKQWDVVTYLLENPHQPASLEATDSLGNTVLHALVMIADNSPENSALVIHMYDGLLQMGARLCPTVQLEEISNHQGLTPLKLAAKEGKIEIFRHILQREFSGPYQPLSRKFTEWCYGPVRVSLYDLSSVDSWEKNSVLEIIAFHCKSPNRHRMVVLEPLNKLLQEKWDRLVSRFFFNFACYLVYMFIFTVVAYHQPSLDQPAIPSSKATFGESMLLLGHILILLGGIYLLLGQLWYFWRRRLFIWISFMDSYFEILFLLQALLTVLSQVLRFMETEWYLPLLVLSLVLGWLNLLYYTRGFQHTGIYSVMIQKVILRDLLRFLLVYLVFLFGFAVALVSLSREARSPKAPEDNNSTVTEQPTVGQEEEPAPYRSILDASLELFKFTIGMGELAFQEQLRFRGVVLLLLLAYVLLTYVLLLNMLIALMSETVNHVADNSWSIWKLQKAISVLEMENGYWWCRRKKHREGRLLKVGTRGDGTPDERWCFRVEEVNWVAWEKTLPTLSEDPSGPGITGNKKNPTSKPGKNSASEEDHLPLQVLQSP
From the text: HEK293T cell line (ATCC CRL-11268) was transiently transfected with plasmid DNA containing polynucleotide encoding hTRPA1 (SEQ. ID. NO: 1), rTRPV2 (SEQ. ID. NO: 2), rTRPV1 (SEQ. ID. NO: 3), mTRPV4 (SEQ. ID. NO: 4), mTRPA1 (SEQ. ID. NO: 5), hTRPV3 (SEQ. ID. NO: 6) or mTRPM8 (SEQ. ID. NO: 7).
as §1
Particularly, the transfected cell line of Example <4-1> was loaded with Fluo-3AM (5 μM; Sigma Aldrich, USA) in the bath solution (140 mM NaCl, 5 mM KCl, 2 mM CaCl2, 1 mM MgCl2, 10 mM HEPES; adjusted to pH 7.4 with NaOH) containing 0.02% pluronic acid (Invitrogen, USA). […]

trigeminal neurons = assay: Whole-cell voltage-clamp recording of cultured trigeminal neurons; format: cell-based, mouse; conditions: 1 mM acetaldehyde, n=6
Description: Trigeminal ganglia were dissected out of decapitated adult ICR mice in cold PBS and treated with 1.5 mg/Ml of collagenase/dispase (Roche Diagnostics, USA) at 37 °C for 45 min, and then treated with 0.25% trypsin (Invitrogen, USA) for 15 min. The trigeminal neurons prepared thereby were then plated onto poly-L-lysine-coated coverslips in DMEM/F12 containing 10% FBS, 1% penicillin/streptomycin and 5 ng/Ml of 2.5S NGF (Invitrogen, USA), nerve growth factor (Invitrogen), followed by culture in a CO2 incubator for 48-72 hours.
Particularly, the extracellular solution (140 mM NaCl, 5 mM KCl, 2 mM CaCl2, 1 mM MgCl2, 10 mM HEPES; titrated to pH 7.4 with NaOH) and the pipette solution (140 mM CsCl, 5 mM EGTA, 10 mM HEPES, 2.0 mM MgATP, 0.2 mM NaGTP; titrated to pH 7.2 with CsOH) were used. The potential was holded at −60 mV for 250 ms, voltage-ramp pulsed from −80 mV to +80 mV for […] and returned to −60 mV for 250 ms, which was repeated without intersweep. This experiment was repeated 5 times.
The trigeminal neurons prepared by the same manner as described in Example 2 were delayed-treated with 1 mM acetaldehyde, followed by treatment of 20 μM GdCl3 (a TRPA1 blocker gadolinium; Sigma-Aldrich, USA) and 2 mM camphor. Then, whole-cell voltage-clamp recording was performed by the same manner as described in Example <5-2>.

CC=O [acetaldehyde]
EC50 (hTRPA1): 76.5 µM | elevation of intracellular calcium levels in hTRPA1-expressing cells (hTRPA1; 1 mM acetaldehyde, 300 μM cinnamaldehyde, 10 mM acetic acid, 1% methanol, 1% ethanol): TRPA1-specific responses; also recorded: responded | n of dose-response curve (Hill plot) on hTRPA1 (hTRPA1; acetaldehyde 1 to 10^4 μM, Fluo-3 calcium imaging): 2.4 | activation of TRPV2 by acetaldehyde (TRPV2): only TRPA1 was activated | current increase in trigeminal neurons (trigeminal neurons): increased current
